Measurements: publication PMC7482410 (ACS Omega, 2020)
Blank lines part the entries; values can stand above or below the molecule they belong to.

Legend:
[1] = molecular target: murine CCL2 (mCCL2-P8A, MCP-1) (Mus musculus, UniProt P10148, P31A); experiment: intrinsic Trp fluorescence quenching titration; type: binding
[2] = molecular target: murine CCL2 (mCCL2-WT, MCP-1) (Mus musculus, UniProt P10148); experiment: intrinsic Trp fluorescence quenching titration; type: binding
[3] = molecular target: human CCL2 (hCCL2-WT, MCP-1) (Homo sapiens, UniProt P13500); experiment: intrinsic Trp fluorescence quenching titration; type: binding
[4] = molecular target: human CCL2 (hCCL2-P8A, MCP-1) (Homo sapiens, UniProt P13500, P31A); experiment: intrinsic Trp fluorescence quenching titration; type: binding
[5] = molecular target: DDAH (Pseudomonas aeruginosa) (UniProt Q9I4E3); details: cited from earlier work
[6] = molecular target: murine CCL2 wild type (monocyte chemoattractant protein-1) (murine) (UniProt P10148); experiment: NMR translational diffusion

Chain of murine CCL2 (mCCL2-P8A, MCP-1) (P10148 24-99 P31A limits assumed): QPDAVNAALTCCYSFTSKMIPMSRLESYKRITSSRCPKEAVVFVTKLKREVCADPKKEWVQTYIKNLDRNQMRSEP
Chain of murine CCL2 (mCCL2-WT, MCP-1) (P10148 24-99 limits assumed): as the sequence (P10148 24-99 P31A limits assumed) above, with A8P counted along it
Chain of human CCL2 (hCCL2-P8A, MCP-1) (P13500 24-99 P31A): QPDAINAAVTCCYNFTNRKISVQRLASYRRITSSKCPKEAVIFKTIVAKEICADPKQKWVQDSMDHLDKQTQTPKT
Chain of DDAH (Q9I4E3 whole entry): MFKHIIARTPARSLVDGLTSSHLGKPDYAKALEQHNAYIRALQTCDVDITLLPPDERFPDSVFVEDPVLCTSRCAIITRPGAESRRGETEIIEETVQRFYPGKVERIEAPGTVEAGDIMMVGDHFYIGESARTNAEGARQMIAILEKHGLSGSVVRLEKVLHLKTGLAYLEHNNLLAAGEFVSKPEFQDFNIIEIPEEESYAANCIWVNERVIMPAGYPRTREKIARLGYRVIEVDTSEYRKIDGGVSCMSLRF
Chain of human CCL2 (hCCL2-WT, MCP-1) (P13500 24-99): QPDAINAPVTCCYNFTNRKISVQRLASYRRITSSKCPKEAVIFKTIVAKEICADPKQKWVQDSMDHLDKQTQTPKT

Kd [1]: 270 ± 20 nM
Kd [2]: 290 ± 20 nM
Kd [3]: 250 ± 20 nM
Kd [4]: 260 ± 20 nM
Molecule: O=C(O)[C@H]1O[C@@H](Oc2cc3oc(-c4ccccc4)cc(=O)c3c(O)c2O)[C@H](O)[C@@H](O)[C@@H]1O [BA]

Molecule: DDAH (from UniProt Q9I4E3)
Kd [5]: 500 nM

stoichiometry N [6]: 2
Molecule: murine CCL2 wild type (monocyte chemoattractant protein-1) (from UniProt P10148 24-148) (natural protein)
